From US11400096B2, “Small molecules for the treatment of autoimmune disorders” (Board of Regents, The University of Texas System, priority 2017, dated 2022)

tested on: IL-17; test: Inhibition of IL-17 secretion by compounds; type: cell-based

SMILES | IL-17 Secretion Inhibition [%]
CCCn1c(=O)c2nc(-c3ccc(OCc4nc5ccccc5[nH]4)cc3)[nH]c2n(CCC)c1=O [Compound P2] | 54.1
CCCn1c(=O)c2nc(-c3ccc(OCc4nc5cc(C)ccc5[nH]4)cc3)[nH]c2n(CCC)c1=O [Compound P5] | 64.3
CCOc1nc2c(N)ncnc2n1CC1CC1 [Compound P8] | 45.4
